Assays:
[1] = system: rat two-level spine model; experiment: posterolateral spinal fusion in a rat two-level spine model (radiographs, manual palpation); type: in vivo; settings: for spinal fusion (figure legend): bone growth at 4 and 8 weeks, fusion confirmed by manual palpation at 8 weeks; for bridging bone on radiographs: 4-week and 8-week timepoints, rat L3-L5; for fusion observed in rat spines (manual palpation): matrix of Oxy133, collagen and ceramic wetted with sterile water, two implants bilaterally in posterolateral space, 8-week sacrifice
Protocol: FIG. 6 illustrates uses of a formulation of compression resistant implants having 20 mg of Oxy133 on each side of the implant, in accordance with the implants described herein. […] Bone growth in rat test subjects can be seen after 4 and 8 weeks post-implantation, and fusion was confirmed by manual palpation of the spine segments at 8 weeks. […] A dry composition of a matrix containing Oxy133, collagen and ceramic as described herein was prepared and wetted with sterile water to be implanted in rat spines as shown in FIG. 6. The wetted matrix was cut in half with a razor blade to yield two halves. The two implants were molded into cylindrical shapes prior to insertion and were positioned bilaterally in the posterolateral space of each test subject. Each implant contained 20 mg Oxy133. Radiographs were taken roughly 10 minutes after the procedure, 4 weeks after the procedure, and 8 weeks after the procedure. […] Fusion was tested at 8-week sacrifice by manual palpation. […] A dry composition of a matrix containing Oxy133, collagen and ceramic as described herein was prepared and wetted with sterile water to be implanted in rat spines as shown in FIG. 6. The wetted matrix was cut in half with a razor blade to yield two halves. The two implants were molded into cylindrical shapes prior to insertion and were positioned bilaterally in the posterolateral space of each test subject. Each implant contained […] Oxy133. Radiographs were taken roughly 10 minutes after the procedure, 4 weeks after the procedure, and 8 weeks after the procedure. […] Fusion was tested at 8-week sacrifice by manual palpation.

[2] = solubility in water; type: physicochemical
Source text: The Oxy133 can be solubilized in a non-aqueous solvent, such as for example, ethanol and mixed into a solution or suspension. In some embodiments, the Oxy 133 can be filtered by passing the Oxy 133 and solvent through a filter (e.g., 0.22 microns). This will remove bacteria and other larger-size particulates out of the composition. The Oxy 133 used in the composition can be micronized before it is mixed with solvents and other excipients. In various embodiments, the particle size of the Oxy 133 can range from about 1 micron to 250 microns. In some embodiments, the Oxy 133 can have a particle size of from about 5 microns to about 100 microns or from about 20 to 50 microns. The Oxy 133 in the solution or suspension can be added to a slurry of biodegradable polymer and/or the ceramic particles, mixed and, then optionally dried.

Compound: CCCCCC[C@](C)(O)[C@H]1CC[C@H]2[C@@H]3C[C@H](O)[C@H]4C[C@@H](O)CC[C@]4(C)[C@H]3CC[C@@]21C [Oxy133, (3S,5S,6S,8R,9S,10R,13S,14S,17S)-17-((S)-2-hydroxyoctan-2-yl)-10,13-dimethylhexadecahydro-1H-cyclopenta [a]phenanthrene-3,6-diol]
- spinal fusion (figure legend) ([1]; 20 mg of Oxy133 on each side, FIG. 6): yielded spinal fusion
- spinal fusion (figure legend) ([1]; 125 mg of Oxy133 on each side, FIG. 7): yielded spinal fusion
- bridging bone on radiographs ([1]; each implant 20 mg Oxy133): promoted bridging bone across the transverse processes of L3-L5
- bridging bone on radiographs ([1]; each implant 125 mg Oxy133): promoted bridging bone across the transverse processes of L3-L5
- fusion observed in rat spines (manual palpation) ([1]; each implant 20 mg Oxy133): 100%
- fusion observed in rat spines (manual palpation) ([1]; each implant 125 mg Oxy133): 100%
- solubility in water [2]: only slightly soluble or insoluble in water

From patent US12171909B2, “Implants having a drug load of an oxysterol and methods of use” (WARSAW ORTHOPEDIC, INC., priority 2015, dated 2024)
